# Experiments:
# [1] = tested on: dividing LucΔ S. cerevisiae strain cells; assay: Dividing cell assay, luciferase activity, 96-well plates; format: cell-based, Saccharomyces cerevisiae; details: dilutions in 4.5% ethanol, 1x SC (-ura), exposure 3, 5, 7, 9 h
# Protocol: (§1) The following procedure was designed to monitor the effect of increasing the exposure time up to 9 hours and to determine the different responses of dividing and non-dividing biosensor cells to the presence of DNA-damaging agents. For assay preparation, the diluent used was ethanol at 4.5% final concentration. All ethidium bromide dilution standards were prepared in glassware. […] The black 96-well plates were covered with a plate sealer and incubated at 30° C. before and between readings. […] Additional of 100 μl citrate phosphate buffer (pH 2.5), containing 0.2 mM luciferin, was performed at each time point before luminescence quantification in a Lucy Anthos 1 luminometer using the Stingray (v2.0b31) software package. Following luminescence quantification 100 μl was removed from the blank well in the dividing assays for OD600 measurements and cell counts. […]
# Thus in FIG. 13, the effect of ethidium bromide on dividing cells was measured by recording luciferase activity from cells in wells containing ethidium bromide dilutions prepared in 4.5% ethanol. […]
# [2] = tested on: non-dividing LucΔ S. cerevisiae strain cells; assay: Non-dividing cell assay, light output, 96-well plates; format: cell-based, Saccharomyces cerevisiae; details: dilutions in 4.5% ethanol, cells in ddH2O, exposure 3, 5, 7, 9 h
# Protocol: as §1
# In FIG. 14, the effect of ethidium bromide on non-dividing cells was measured by recording the light output from cells in wells containing ethidium bromide dilutions prepared in 4.5% ethanol. […]
# [3] = tested on: S. cerevisiae pPLUCΔP biosensor; assay: S. cerevisiae pPLUCΔP biosensor luminescence toxicity assay; details: for detection of toxic substance by change in luminescence: 10 min exposure, toxicant at pH 5.5, FIGS. 5 and 6
# Protocol: In vivo luciferase activity assays using S. cerevisiae require acidification to allow the substrate for the light reaction (luciferin) to freely enter intact cells. Therefore, a two-step assay procedure was designed to incorporate separate toxicity analysis without pH adjustment and subsequent acidification for luminescence quantification. In preparation for the assay, S. cerevisiae cells were harvested at peak luminescence (around 3 to 4×10^8 cells/ml), centrifuged at 700 g (3000 rpm) and washed twice in 5 mM KCl; keeping the original volume constant for the first wash, but halved for second wash (allowing for modified dilution in assay). The first step (exposure), 50 μl of washed S. cerevisiae cells are added to a 450 μl sample (pH generally not important). In an alternative procedure the S. cerevisiae can also be resuspended in water rather than in 5 mM Kcl. The second step (acificiation), 500 μl citrate phosphate buffer (pH2.5), also containing the luciferan (0.1 mM final concentration in 1 ml sample), are added to make up 1 ml total volume for subsequent luminescence quantification. The exposure time is generally 10 minutes, but this can be lengthened or shortened depending on assay requirements (e.g. FIGS. 10a, 10b and 11). The assay allows for the full pH durability of S. cerevisiae to be exploited as prior pH adjustment of samples is not required. Luminescence of the sample containing cuvettes are compared to a blank containing diluent(s) used in the assay. This blank defines 100% luminescence.
# Dilutions were then made of the stock solutions using deionised water adjusted to pH5.5, as above. The cells were harvested at peak luminescence, centrifuged at 700 g and washed twice in 5 M KCl; keeping the original volume constant. The toxicant (450 μl) was added to each cuvette. The final volume was then made up to 500 μl using 3 to 4×10^7 cells. After 10 min, 500 μl of citrate phosphate buffer (pH 2.5) containing 5 μl of 20 mM luciferin was added to each cuvette and the bioluminescence was monitored.
Structure (SMILES),effect on dividing cells (luciferase activity) [1],effect on non-dividing cells (light output) [2],"detection of copper after 48 hours growth of the biosensor ([3]; 10 min copper exposure, sensor cells used after 48 hours, FIG. 11)",detection of toxic substance by change in luminescence [3]
CC[n+]1c(-c2ccccc2)c2cc(N)ccc2c2ccc(N)cc21 [ethidium bromide],clear decrease in cell division,no clear toxic effect,–,–
[Cu] [copper],–,–,still actively detecting,can detect
"Oc1cc(Cl)cc(Cl)c1 [3,5-dichlorophenol]",–,–,–,can detect

# Source: patent publication US6406856B1, “Biosensor” (Aberdeen University, priority 1998, dated 2002)
